As a reminder, the inhibition is how much of the control response was suppressed. A lower inhibition goes with a weak effect.

The target of one assay is T1, AII receptor (Bos taurus, UniProt P25104).
T1 construct: An AII receptor membrane fraction was prepared from bovine adrenal cortex; from tissue; host or cells: bovine adrenal cortex, membrane fraction
T1 sequence (P25104 1-359): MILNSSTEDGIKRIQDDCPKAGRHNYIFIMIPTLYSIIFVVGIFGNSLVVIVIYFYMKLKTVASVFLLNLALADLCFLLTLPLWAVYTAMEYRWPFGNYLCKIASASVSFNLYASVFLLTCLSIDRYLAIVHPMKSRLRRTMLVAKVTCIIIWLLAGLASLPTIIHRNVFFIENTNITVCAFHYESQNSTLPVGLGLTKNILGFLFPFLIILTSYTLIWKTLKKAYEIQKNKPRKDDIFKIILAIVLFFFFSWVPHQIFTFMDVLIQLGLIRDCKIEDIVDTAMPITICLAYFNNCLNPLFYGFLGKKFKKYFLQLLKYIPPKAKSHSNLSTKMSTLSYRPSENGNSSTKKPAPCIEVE
Briefly: Inhibition of binding of [125I]-angiotensinII to AII receptor (radioreceptor assay). Conditions: 1 h, membrane fraction from bovine adrenal cortex, room temperature, one hour; for inhibition at 1 µM: 10^-6 (M); for inhibition at 0.1 µM: 10^-7 (M). The protocol:
An experiment of inhibition on the binding of angiotensinII (AII) to AII receptor was conducted by modifying the method of Douglas et al. [Endocrinology, 102, 685-696 (1978)]. An AII receptor membrane fraction was prepared from bovine adrenal cortex.
The compound of the present invention (10 ^-6 M or 10^-7 M) and [^125 I]-angiotensinII ([^125 I]-AII) (1.85 kBq/50 μl) were added to the receptor membrane fraction, and the mixture was incubated at room temperature for one hour. The receptor-bound and free [^125 I]-AII were separated through a filter (Whatman GF/B filter), and the radioactivity of [^125 I]-AII bound to the receptor was measured.

The conditions of assay [1]: reported in literature; cited from earlier work.

Consider `CCOc1nc(C(=O)O)c2c(n1)nc(OCC)n2Cc1ccc(-c2ccccc2-c2nnn[nH]2)cc1` [Example 13, 2,8-Diethoxy-7-[[2'-(1H-tetrazol-5-yl)biphenyl-4-yl]methyl]purine-6-carboxylic acid], for which, on AII receptor, testing at 1 µM gave an inhibition of 49% and the inhibition at 0.1 µM turned out to be 20%.

On AII receptor, `CCCCc1nc2c(C)cnc(C(=O)O)c2n1Cc1ccc(-c2ccccc2-c2nnn[nH]2)cc1` [Example 1, 2-Butyl-7-methyl-3-[[2'-(1H-tetrazol-5-yl)biphenyl-4-yl]methyl]-3H-imidazo[4,5-c]pyridine-4-carboxylic acid] yielded an inhibition at 1 µM of 92% and an inhibition at 0.1 µM of 63%.

Regarding `CCCc1nn2ncc(C(=O)O)c2n1Cc1ccc(-c2ccccc2-c2nnn[nH]2)cc1` [Example 11, 2-Propyl-1-[[2'-(1H-tetrazol-5-yl)biphenyl-4-yl]methyl]-1H-pyrazolo[1,5-b][1,2,4]triazole-7-carboxylic acid], at AII receptor, the inhibition at 1 µM came out at 86% and testing at 0.1 µM gave an inhibition of 54%.

`CCCCc1nc2cccc(C(=O)O)c2n1Cc1ccc(-n2cccc2-c2nnn[nH]2)cc1` [Example 7, 2-Butyl-1-[[4-[2-(1H-tetrazol-5-yl)-1-pyrrolyl]phenyl]methyl]benzimidazole-7-carboxylic acid]: on AII receptor, testing at 1 µM gave an inhibition of 67% and the inhibition at 0.1 µM worked out at 27%.

Regarding `CCc1cc2c(=O)c3cccc(C(=O)OC(C)OC(=O)OC4CCCCC4)c3n(Cc3ccc(-c4ccccc4-c4nnn[nH]4)cc3)c2s1` (stereo not drawn) [Example 15, 1-(Cyclohexyloxycarbonyloxy)ethyl 2-ethyl-4-oxo-9-[[2'-(1H-tetrazol-5-yl)biphenyl-4-yl]methyl]-4,9-dihydrothieno[2,3-b]quinoline-8-carboxylate], on AII receptor, the inhibition at 1 µM stood at 19% and the inhibition at 0.1 µM stood at 1%.

At AII receptor, `CCCc1cc2cccc(C(=O)O)c2n1Cc1ccc(-c2ccccc2-c2nnn[nH]2)cc1` [Example 17, 2-Propyl-1-[[2'-(1H-tetrazol-5-yl)biphenyl-4-yl]methyl]indole-7-carboxylic acid] showed an inhibition at 1 µM of 39% and an inhibition at 0.1 µM of 0%.

In the case of `CNCC(=O)N[C@@H](CCCN=C(N)N)C(=O)N[C@H](C(=O)N[C@@H](Cc1ccc(O)cc1)C(=O)N[C@H](C(=O)N[C@@H](Cc1cnc[nH]1)C(=O)N1CCC[C@H]1C(=O)N[C@@H](C)C(=O)O)C(C)C)C(C)C` [saralasin], the angiotensinII antagonist activity result in assay [1] is reported as “potent”.

On AII receptor, `CCCc1nn2ncc(C(=O)OCOC(=O)C(C)(C)C)c2n1Cc1ccc(-c2ccccc2-c2nnn[nH]2)cc1` [Example 20, Pivaloyloxymethyl 2-propyl-1-[[2'-(1H-tetrazol-5-yl)biphenyl-4-yl]methyl]-1H-pyrazolo[1,5-b][1,2,4]triazole-7-carboxylate] registered an inhibition at 1 µM of 61% and an inhibition at 0.1 µM of 21%.

For the compound `CCCc1nc2c(C)cnc(C(=O)O)c2n1Cc1ccc(-c2ccccc2-c2nnn[nH]2)cc1` [Example 2, 2-Propyl-7-methyl-3-[[2'-(1H-tetrazol-5-yl)biphenyl-4-yl]methyl]-3H-imidazo[4,5-c]pyridine-4-carboxylic acid], at AII receptor, the inhibition at 1 µM was 92% and 0.1 µM produced 54% inhibition.

Consider `CCc1cc2c(=O)c3cccc(C(=O)OCOC(=O)C(C)(C)C)c3n(Cc3ccc(-c4ccccc4-c4nnn[nH]4)cc3)c2s1` [Example 14, Pivaloyloxymethyl 2-ethyl-4-oxo-9-[[2'-(1H-tetrazol-5-yl)biphenyl-4-yl]methyl]-4,9-dihydrothieno[2,3-b]quinoline-8-carboxylate], for which, on AII receptor, 1 µM produced 69% inhibition and 0.1 µM produced 31% inhibition.

On AII receptor, `CCCCc1nc2cccc(C(=O)O)c2n1Cc1ccc2c(=O)n(-c3ccccc3-c3nnn[nH]3)cnc2c1` [Example 26, 2-Butyl-1-[[4-oxo-3-[2-(1H-tetrazol-5-yl)phenyl]-3,4-dihydroquinazolin-7-yl]methyl]benzimidazole-7-carboxylic acid] displayed an inhibition at 1 µM of 80% and an inhibition at 0.1 µM of 39%.

For `CCCCc1nc2cccc(C(=O)O)c2n1Cc1ccc(-c2ccccc2-c2nnn[nH]2)nc1` [Example 21, 2-Butyl-1-[[2-[2-(1H-tetrazol-5-yl)phenyl]pyridin-5-yl]methyl]benzimidazole-7-carboxylic acid], at AII receptor, the inhibition at 1 µM amounted to 70% and at 0.1 µM the inhibition was 26%.

Turning to `CCCc1cn2ncc(C(=O)O)c2n1Cc1ccc(-c2ccccc2-c2nn[nH]n2)cc1` [Example 6, 5-Propyl-4-[[2'-(1H-tetrazol-5-yl)biphenyl-4-yl]methyl]-imidazo[1,2-b]pyrazol-3-carboxylic acid], at AII receptor, the inhibition at 1 µM is 91% and the inhibition at 0.1 µM came out at 60%.

On AII receptor, `CCc1cc2c(=O)c3cccc(C(=O)O)c3n(Cc3ccc(-c4ccccc4-c4nnn[nH]4)cc3)c2s1` [Example 3, 2-Ethyl-4-oxo-9-[[2'-(1H-tetrazol-5-yl)biphenyl-4-yl]methyl]-4,9-dihydrothieno[2,3-b]quinoline-8-carboxylic acid] showed an inhibition at 1 µM of 49% and an inhibition at 0.1 µM of 12%.

These data come from patent US5389641A, “Fused heterocyclic compounds, having angiotensin II antagonistic activity” (Takeda Chemical Industries, Ltd., priority 1991, dated 1995).
